Data on three compounds can be found in ChEMBL document CHEMBL4033689, “Potential inhibitors of human carbonic anhydrase isozymes I and II: Design, synthesis and docking studies of new 1,3,4-thiadiazole derivatives” (Bioorg Med Chem, 2017).

Molecules are shown by their SMILES.

For the test, the target named is Carbonic anhydrase 2 (Homo sapiens, UniProt P00918). As to the kind of experiment: Inhibition of carbonic anhydrase-2 in […] assessed as reduction in H+ release using CO2 as substrate by bromine thymol blue indicator based assay.
Regarding `O=C(CSc1nnc(Nc2ccccc2)s1)N/N=C/c1ccc(-c2ccc(Cl)c(Cl)c2)o1`, the IC50 entry is recorded as “Not Active”.

Take `O=C(CSc1nnc(Nc2ccccc2)s1)N/N=C/c1ccc(-c2ccc([N+](=O)[O-])cc2)o1`: the IC50 entry is given as “Not Active”.

Regarding `O=C(CSc1nnc(Nc2ccccc2)s1)N/N=C/c1ccc(-c2ccc(Cl)cc2[N+](=O)[O-])o1`, the IC50 result is “Not Active”.
